# Test results: patent US20260356819A1, “OXOISOINDOLINYL-SUBSTITUTED […] DERIVATIVE AND USE THEREOF” (GLUETACS THERAPEUTICS (SHANGHAI) CO., LTD., priority 2023, published 2026)
# Key:
# Type in all cases: cell-based
# Details in all cases: compounds at 50 nM and 500 nM
# WEE1 = molecular target: T1, WEE1 (Homo sapiens, UniProt P30291+Q96SW2); assay: Western blot degradation of WEE1 in hPBMCs (24 h)
# T1 construct: The supernatant was aspirated as the extracted total cell protein; endogenous in cells; host or cells: human peripheral blood mononuclear cells (hPBMCs)
# In short: (§1)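 hPBMCs (1×10^6 cells/mL) were treated with compound at 50 nM and 500 nM for 24 h, lysed in RIPA with protease inhibitors and analysed by SDS-PAGE/Western blot. Band grayscale, normalised to internal control, gave protein remaining (%); DC50 estimated versus DMSO bands.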
# IKZF3 = molecular target: T2, IKZF3 (Homo sapiens, UniProt Q96SW2+Q9UKT9); assay: Western blot degradation of IKZF3 in hPBMCs (24 h)
# T2 construct: The supernatant was aspirated as the extracted total cell protein; endogenous in cells; host or cells: human peripheral blood mononuclear cells (hPBMCs)
# In short: as §1
# GSPT1 = molecular target: T3, GSPT1 (Homo sapiens, UniProt P15170+Q96SW2); assay: Western blot degradation of GSPT1 in hPBMCs (24 h)
# T3 construct: The supernatant was aspirated as the extracted total cell protein; endogenous in cells; host or cells: human peripheral blood mononuclear cells (hPBMCs)
# In short: as §1
# CK1α = molecular target: T4, CK1α (Homo sapiens, UniProt P48729+Q96SW2); assay: Western blot degradation of CK1α in hPBMCs (24 h)
# T4 construct: The supernatant was aspirated as the extracted total cell protein; endogenous in cells; host or cells: human peripheral blood mononuclear cells (hPBMCs)
# In short: as §1
# IKZF1 = molecular target: T5, IKZF1 (Homo sapiens, UniProt Q13422+Q96SW2); assay: Western blot degradation of IKZF1 in hPBMCs (24 h)
# T5 construct: The supernatant was aspirated as the extracted total cell protein; endogenous in cells; host or cells: human peripheral blood mononuclear cells (hPBMCs)
# In short: as §1
# IKZF2 = molecular target: T6, IKZF2 (Homo sapiens, UniProt Q96SW2+Q9UKS7); assay: Western blot degradation of IKZF2 in hPBMCs (24 h)
# T6 construct: The supernatant was aspirated as the extracted total cell protein; endogenous in cells; host or cells: human peripheral blood mononuclear cells (hPBMCs)
# In short: as §1
# T1 sequence (P30291 whole entry): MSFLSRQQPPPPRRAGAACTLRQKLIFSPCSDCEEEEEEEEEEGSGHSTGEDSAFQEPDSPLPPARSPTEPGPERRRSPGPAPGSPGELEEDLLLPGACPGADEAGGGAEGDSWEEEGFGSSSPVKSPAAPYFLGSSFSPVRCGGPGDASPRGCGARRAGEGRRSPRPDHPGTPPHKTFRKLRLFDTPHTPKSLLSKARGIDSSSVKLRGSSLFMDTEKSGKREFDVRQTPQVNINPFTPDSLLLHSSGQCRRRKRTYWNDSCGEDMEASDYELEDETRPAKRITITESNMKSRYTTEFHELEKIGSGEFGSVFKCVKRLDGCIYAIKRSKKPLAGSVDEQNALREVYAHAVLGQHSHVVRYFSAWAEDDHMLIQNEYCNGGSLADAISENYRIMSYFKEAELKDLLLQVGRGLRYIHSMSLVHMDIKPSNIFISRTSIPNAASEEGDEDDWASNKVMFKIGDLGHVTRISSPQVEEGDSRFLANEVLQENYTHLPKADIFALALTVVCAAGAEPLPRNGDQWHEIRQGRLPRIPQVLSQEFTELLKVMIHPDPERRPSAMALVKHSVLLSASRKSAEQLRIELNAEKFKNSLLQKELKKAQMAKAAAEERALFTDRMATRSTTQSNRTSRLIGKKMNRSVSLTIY
# T1 sequence (Q96SW2 whole entry): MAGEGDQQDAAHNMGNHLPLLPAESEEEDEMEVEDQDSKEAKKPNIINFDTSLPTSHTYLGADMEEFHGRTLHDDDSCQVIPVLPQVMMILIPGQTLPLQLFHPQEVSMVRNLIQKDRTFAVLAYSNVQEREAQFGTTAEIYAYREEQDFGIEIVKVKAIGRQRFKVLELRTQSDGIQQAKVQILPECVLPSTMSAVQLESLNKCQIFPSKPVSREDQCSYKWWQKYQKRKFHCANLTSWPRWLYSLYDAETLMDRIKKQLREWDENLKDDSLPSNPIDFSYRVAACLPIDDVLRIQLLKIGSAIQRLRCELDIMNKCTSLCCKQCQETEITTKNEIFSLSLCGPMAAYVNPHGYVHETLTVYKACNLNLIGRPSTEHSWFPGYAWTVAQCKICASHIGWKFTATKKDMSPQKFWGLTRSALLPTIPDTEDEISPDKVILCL
# T1 sequence (Q16531 whole entry partner): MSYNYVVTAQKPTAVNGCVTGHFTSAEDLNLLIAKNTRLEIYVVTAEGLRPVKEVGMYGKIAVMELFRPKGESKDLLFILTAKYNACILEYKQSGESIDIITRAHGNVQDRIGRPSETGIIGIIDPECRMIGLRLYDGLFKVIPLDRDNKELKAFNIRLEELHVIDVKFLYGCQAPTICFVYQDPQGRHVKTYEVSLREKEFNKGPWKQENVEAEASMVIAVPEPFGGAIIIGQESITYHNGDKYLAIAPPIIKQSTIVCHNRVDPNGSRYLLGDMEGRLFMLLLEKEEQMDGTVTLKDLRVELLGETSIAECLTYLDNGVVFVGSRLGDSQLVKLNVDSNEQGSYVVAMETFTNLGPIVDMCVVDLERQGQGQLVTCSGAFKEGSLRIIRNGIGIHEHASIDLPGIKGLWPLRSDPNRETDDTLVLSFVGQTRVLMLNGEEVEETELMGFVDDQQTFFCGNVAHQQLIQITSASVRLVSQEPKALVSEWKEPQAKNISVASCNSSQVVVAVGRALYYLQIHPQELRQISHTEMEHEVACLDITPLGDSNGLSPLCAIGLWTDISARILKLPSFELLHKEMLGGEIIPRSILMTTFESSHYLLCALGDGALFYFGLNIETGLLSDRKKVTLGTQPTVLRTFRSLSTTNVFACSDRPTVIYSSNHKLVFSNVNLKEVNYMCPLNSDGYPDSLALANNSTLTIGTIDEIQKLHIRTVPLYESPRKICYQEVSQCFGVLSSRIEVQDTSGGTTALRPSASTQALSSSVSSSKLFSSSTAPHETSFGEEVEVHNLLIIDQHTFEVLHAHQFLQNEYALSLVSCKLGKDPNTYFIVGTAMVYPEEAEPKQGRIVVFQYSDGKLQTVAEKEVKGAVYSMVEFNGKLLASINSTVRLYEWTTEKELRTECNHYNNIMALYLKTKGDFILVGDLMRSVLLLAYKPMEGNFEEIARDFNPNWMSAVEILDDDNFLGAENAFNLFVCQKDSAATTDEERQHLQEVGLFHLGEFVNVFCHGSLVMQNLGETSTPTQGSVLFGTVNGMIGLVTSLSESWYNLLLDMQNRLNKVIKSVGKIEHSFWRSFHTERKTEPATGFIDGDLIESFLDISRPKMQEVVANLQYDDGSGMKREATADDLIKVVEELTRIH
# T5 sequence (Q13422 whole entry): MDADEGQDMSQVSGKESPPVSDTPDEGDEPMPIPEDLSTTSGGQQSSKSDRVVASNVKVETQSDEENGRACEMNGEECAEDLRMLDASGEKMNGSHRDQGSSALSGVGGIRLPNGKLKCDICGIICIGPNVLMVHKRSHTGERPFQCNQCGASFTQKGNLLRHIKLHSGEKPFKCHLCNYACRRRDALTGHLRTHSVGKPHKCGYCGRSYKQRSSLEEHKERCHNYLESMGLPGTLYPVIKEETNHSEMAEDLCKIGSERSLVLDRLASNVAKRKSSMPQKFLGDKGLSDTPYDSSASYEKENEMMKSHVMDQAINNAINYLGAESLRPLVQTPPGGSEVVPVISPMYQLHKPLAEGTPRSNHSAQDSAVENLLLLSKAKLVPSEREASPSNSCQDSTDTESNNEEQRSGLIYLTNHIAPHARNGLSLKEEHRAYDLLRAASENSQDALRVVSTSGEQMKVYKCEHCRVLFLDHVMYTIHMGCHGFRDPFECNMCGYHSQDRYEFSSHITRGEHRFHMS
# T5 sequence (Q96SW2 whole entry): as the sequence (Q96SW2 whole entry) above
# T5 sequence (Q16531 whole entry partner): as the sequence (Q16531 whole entry partner) above
# T4 sequence (P48729 whole entry): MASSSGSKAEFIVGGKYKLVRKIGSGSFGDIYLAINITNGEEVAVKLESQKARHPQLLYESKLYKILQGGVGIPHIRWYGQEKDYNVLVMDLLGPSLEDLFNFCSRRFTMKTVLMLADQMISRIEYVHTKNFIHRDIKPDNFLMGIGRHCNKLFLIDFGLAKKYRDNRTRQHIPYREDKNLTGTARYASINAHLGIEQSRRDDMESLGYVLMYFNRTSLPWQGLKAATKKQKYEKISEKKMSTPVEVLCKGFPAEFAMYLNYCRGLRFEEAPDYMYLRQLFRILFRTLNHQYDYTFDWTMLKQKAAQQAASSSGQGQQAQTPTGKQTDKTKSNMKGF
# T4 sequence (Q96SW2 whole entry): as the sequence (Q96SW2 whole entry) above
# T4 sequence (Q16531 whole entry partner): as the sequence (Q16531 whole entry partner) above
# T6 sequence (Q9UKS7 whole entry): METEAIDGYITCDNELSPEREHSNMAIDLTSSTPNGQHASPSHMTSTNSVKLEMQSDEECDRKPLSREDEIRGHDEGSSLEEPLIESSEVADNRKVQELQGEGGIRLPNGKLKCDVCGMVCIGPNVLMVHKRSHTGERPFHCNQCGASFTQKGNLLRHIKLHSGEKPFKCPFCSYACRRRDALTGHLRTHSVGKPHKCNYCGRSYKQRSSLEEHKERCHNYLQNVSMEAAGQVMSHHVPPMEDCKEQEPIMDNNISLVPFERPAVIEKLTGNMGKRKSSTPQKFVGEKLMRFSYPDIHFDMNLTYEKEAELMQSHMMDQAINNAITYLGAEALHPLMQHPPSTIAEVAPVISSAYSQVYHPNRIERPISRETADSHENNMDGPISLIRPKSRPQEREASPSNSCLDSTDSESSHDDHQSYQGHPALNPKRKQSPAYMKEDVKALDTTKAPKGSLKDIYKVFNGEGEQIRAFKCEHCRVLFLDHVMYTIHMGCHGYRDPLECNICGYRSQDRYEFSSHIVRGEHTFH
# T6 sequence (Q96SW2 whole entry): as the sequence (Q96SW2 whole entry) above
# T6 sequence (Q16531 whole entry partner): as the sequence (Q16531 whole entry partner) above
# T2 sequence (Q9UKT9 whole entry): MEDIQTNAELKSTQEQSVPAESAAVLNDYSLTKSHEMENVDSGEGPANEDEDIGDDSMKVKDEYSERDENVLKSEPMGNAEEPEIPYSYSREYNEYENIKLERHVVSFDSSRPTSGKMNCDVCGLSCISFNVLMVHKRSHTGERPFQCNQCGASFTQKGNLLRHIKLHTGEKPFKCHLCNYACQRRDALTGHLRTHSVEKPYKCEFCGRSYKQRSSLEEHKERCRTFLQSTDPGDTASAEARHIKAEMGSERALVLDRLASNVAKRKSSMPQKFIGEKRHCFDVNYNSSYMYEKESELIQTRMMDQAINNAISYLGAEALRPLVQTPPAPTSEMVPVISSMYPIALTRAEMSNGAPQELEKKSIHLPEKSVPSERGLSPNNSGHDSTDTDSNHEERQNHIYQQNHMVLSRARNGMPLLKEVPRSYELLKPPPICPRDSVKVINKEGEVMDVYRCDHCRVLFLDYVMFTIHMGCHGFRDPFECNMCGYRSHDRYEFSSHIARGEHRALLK
# T2 sequence (Q96SW2 whole entry): as the sequence (Q96SW2 whole entry) above
# T2 sequence (Q16531 whole entry partner): as the sequence (Q16531 whole entry partner) above
Compound,WEE1 substrate protein remaining % (WEE1),IKZF3 substrate protein remaining % (IKZF3),GSPT1 substrate protein remaining % (GSPT1),CK1α substrate protein remaining % (CK1α),IKZF1 substrate protein remaining % (IKZF1),IKZF2 substrate protein remaining % (IKZF2)
"O=C1CCN(N2C(=O)c3ccc(CNC45CC6CC(CC(O)(C6)C4)C5)cc3C2=O)C(=O)N1 [GT-07786, 2-(2,4-dioxotetrahydropyrimidin-1(2H)-yl)-5-((((1r,3s,5R,7S)-3-hydroxyadamantan-1-yl)amino)methyl)isoindoline-1,3-dione]",B (80%< substrate protein remaining % ≤100%),B (80%< substrate protein remaining % ≤100%),A (0% ≤ substrate protein remaining % ≤80%),B (80%< substrate protein remaining % ≤100%),B (80%< substrate protein remaining % ≤100%),B (80%< substrate protein remaining % ≤100%)
"NCc1ccc2c(c1)C(=O)N(N1CCC(=O)NC1=O)C2=O [GT-07968, 5-(aminomethyl)-2-(2,4-dioxotetrahydropyrimidin-1(2H)-yl)isoindoline-1,3-dione]",A (0% ≤ substrate protein remaining % ≤80%),A (0% ≤ substrate protein remaining % ≤80%),B (80%< substrate protein remaining % ≤100%),A (0% ≤ substrate protein remaining % ≤80%),A (0% ≤ substrate protein remaining % ≤80%),A (0% ≤ substrate protein remaining % ≤80%)
"O=C1CCN(N2Cc3cc(CN4CC=C(c5cccc(Cl)c5Cl)CC4)ccc3C2=O)C(=O)N1 [GT-08054, 1-(5-((4-(2,3-dichlorophenyl)-3,6-dihydropyridin-1(2H)-yl)methyl)-1-oxoisoindolin-2-yl)dihydropyrimidine-2,4(1H,3H)-dione]",A (0% ≤ substrate protein remaining % ≤80%),A (0% ≤ substrate protein remaining % ≤80%),A (0% ≤ substrate protein remaining % ≤80%),A (0% ≤ substrate protein remaining % ≤80%),A (0% ≤ substrate protein remaining % ≤80%),A (0% ≤ substrate protein remaining % ≤80%)
"O=C1CCN(N2Cc3cc(CN4CC=C(c5cccc(F)c5Cl)CC4)ccc3C2=O)C(=O)N1 [GT-08055, 1-(5-((4-(2-chloro-3-fluorophenyl)-3,6-dihydropyridin-1(2H)-yl)methyl)-1-oxoisoindolin-2-yl)dihydropyrimidine-2,4(1H,3H)-dione]",A (0% ≤ substrate protein remaining % ≤80%),A (0% ≤ substrate protein remaining % ≤80%),A (0% ≤ substrate protein remaining % ≤80%),A (0% ≤ substrate protein remaining % ≤80%),A (0% ≤ substrate protein remaining % ≤80%),A (0% ≤ substrate protein remaining % ≤80%)
"O=C1CCN(N2Cc3cc(CN4CCN(c5ncnc6sccc56)CC4)ccc3C2=O)C(=O)N1 [GT-08057, 1-(1-oxo-5-((4-(thieno[2,3-d]pyrimidin-4-yl)piperazin-1-yl)methyl)isoindolin-2-yl)dihydropyrimidine-2,4(1H,3H)-dione]",B (80%< substrate protein remaining % ≤100%),B (80%< substrate protein remaining % ≤100%),A (0% ≤ substrate protein remaining % ≤80%),B (80%< substrate protein remaining % ≤100%),A (0% ≤ substrate protein remaining % ≤80%),B (80%< substrate protein remaining % ≤100%)
"Cc1csc2ncnc(N3CCN(Cc4ccc5c(c4)CN(N4CCC(=O)NC4=O)C5=O)CC3)c12 [GT-08058, 1-(5-((4-(5-methylthieno[2,3-d]pyrimidin-4-yl)piperazin-1-yl)methyl)-1-oxoisoindolin-2-yl)dihydropyrimidine-2,4(1H,3H)-dione]",B (80%< substrate protein remaining % ≤100%),B (80%< substrate protein remaining % ≤100%),B (80%< substrate protein remaining % ≤100%),B (80%< substrate protein remaining % ≤100%),A (0% ≤ substrate protein remaining % ≤80%),B (80%< substrate protein remaining % ≤100%)
"Cc1cc2c(N3CCN(Cc4ccc5c(c4)CN(N4CCC(=O)NC4=O)C5=O)CC3)ncnc2s1 [GT-08059, 1-(5-((4-(6-methylthieno[2,3-d]pyrimidin-4-yl)piperazin-1-yl)methyl)-1-oxoisoindolin-2-yl)dihydropyrimidine-2,4(1H,3H)-dione]",B (80%< substrate protein remaining % ≤100%),A (0% ≤ substrate protein remaining % ≤80%),B (80%< substrate protein remaining % ≤100%),B (80%< substrate protein remaining % ≤100%),B (80%< substrate protein remaining % ≤100%),B (80%< substrate protein remaining % ≤100%)
"CC(C)c1cc2c(N3CCN(Cc4ccc5c(c4)CN(N4CCC(=O)NC4=O)C5=O)CC3)ncnc2s1 [GT-08060, 1-(5-((4-(6-isopropylthieno[2,3-d]pyrimidin-4-yl)piperazin-1-yl)methyl)-1-oxoisoindolin-2-yl)dihydropyrimidine-2,4(1H,3H)-dione]",B (80%< substrate protein remaining % ≤100%),A (0% ≤ substrate protein remaining % ≤80%),B (80%< substrate protein remaining % ≤100%),B (80%< substrate protein remaining % ≤100%),B (80%< substrate protein remaining % ≤100%),A (0% ≤ substrate protein remaining % ≤80%)
"Cc1sc2ncnc(N3CCN(Cc4ccc5c(c4)CN(N4CCC(=O)NC4=O)C5=O)CC3)c2c1C [GT-08061, 1-(5-((4-(5,6-dimethylthieno[2,3-d]pyrimidin-4-yl)piperazin-1-yl)methyl)-1-oxoisoindolin-2-yl)dihydropyrimidine-2,4(1H,3H)-dione]",B (80%< substrate protein remaining % ≤100%),A (0% ≤ substrate protein remaining % ≤80%),B (80%< substrate protein remaining % ≤100%),B (80%< substrate protein remaining % ≤100%),B (80%< substrate protein remaining % ≤100%),A (0% ≤ substrate protein remaining % ≤80%)
"Cc1sc2ncnc(N3CCCN(Cc4ccc5c(c4)CN(N4CCC(=O)NC4=O)C5=O)CC3)c2c1C [GT-08062, 1-(5-((4-(5,6-dimethylthieno[2,3-d]pyrimidin-4-yl)-1,4-diazepan-1-yl)methyl)-1-oxoisoindolin-2-yl)dihydropyrimidine-2,4(1H,3H)-dione]",B (80%< substrate protein remaining % ≤100%),A (0% ≤ substrate protein remaining % ≤80%),B (80%< substrate protein remaining % ≤100%),B (80%< substrate protein remaining % ≤100%),B (80%< substrate protein remaining % ≤100%),A (0% ≤ substrate protein remaining % ≤80%)
"O=C1CCN(N2Cc3cc(CN4CCN(c5ncnc6sc(Br)cc56)CC4)ccc3C2=O)C(=O)N1 [GT-08063, 1-(5-((4-(6-bromothieno[2,3-d]pyrimidin-4-yl)piperazin-1-yl)methyl)-1-oxoisoindolin-2-yl)dihydropyrimidine-2,4(1H,3H)-dione]",B (80%< substrate protein remaining % ≤100%),A (0% ≤ substrate protein remaining % ≤80%),B (80%< substrate protein remaining % ≤100%),B (80%< substrate protein remaining % ≤100%),B (80%< substrate protein remaining % ≤100%),A (0% ≤ substrate protein remaining % ≤80%)
"O=C1CCN(N2Cc3cc(CN4CCN(c5ncnc6sc(-c7ccccc7)cc56)CC4)ccc3C2=O)C(=O)N1 [GT-08064, 1-(1-oxo-5-((4-(6-phenylthieno[2,3-d]pyrimidin-4-yl)piperazin-1-yl)methyl)isoindolin-2-yl)dihydropyrimidine-2,4(1H,3H)-dione]",B (80%< substrate protein remaining % ≤100%),B (80%< substrate protein remaining % ≤100%),B (80%< substrate protein remaining % ≤100%),B (80%< substrate protein remaining % ≤100%),B (80%< substrate protein remaining % ≤100%),A (0% ≤ substrate protein remaining % ≤80%)
